In one experiment the test system is αSMA. Kind of experiment: αSMA intensity (fibroblast activation) in IPF patient-derived lung fibroblasts + TGFβ. Format: cell-based, human. The note with it: Homo sapiens, SMA, 1 μM + TGFβ, treated for 72 hours.
For a further experiment, the system named is YAP/TAZ. Kind of experiment: YAP/TAZ nuclear localization in IMR-90 and other mesenchymal cells (cardiac, dermal fibroblasts, hepatic stellate cells). Format: cell-based, human. As for the experimental part: FIGS. 2A-2E Dopamine Receptor D1 agonism blocks YAP/TAZ nuclear localization. 2a. Selective agonists of dopamine receptor D1 with varying efficacy inhibit YAP/TAZ nuclear localization; this effect can be overcome by treatment with a DRD1 receptor antagonist (SCH 39166, 3 μM), (Dihydrexidine, 10 μM). IMR-90 cells treated 2 hours prior to fixation. N=4 (****p<0.0001 vs. 0.1% DMSO vehicle control). Scale bar represents 100 μm. 2b. Consistent with DRD1 expression, DHX inhibits YAP/TAZ only in fibroblasts (IPF-FBs) but not in epithelial (NHEpCs) or endothelial (NHMVECs) cells. N=4 (****p<0.0001 vs. 0.1% DMSO vehicle control) 2c. YAP/TAZ localization is induced through multiple ligands which stimulate receptors coupled to Galphαi/q/12, endothelin 1 (ET-1: 100 nM), lysophosphatidic acid (LPA: 10 μM), and serotonin (5-HT: 1 μM). In each case DHX treatment (10 μM) can reverse this effect on YAP/TAZ. IMR-90 cells plated densely onto plastic cell culture plates for 24 hours in media containing 0.1% FBS, treated for 2 hours prior to fixation. N=4 (****p<0.0001 vs. 0.1% DMSO vehicle control), (++++p<0.0001 vs. the respective stimulated agonist ET-1, LPA, or 5-HT). Scale bar represents 100 μm. 2d. cAMP measured in IPF patient-derived fibroblasts treated for 20 minutes with DHX (10 μM)+/−SCH 39166 (3 μM). N=3 (**p<0.01 vs. 0.1% DMSO vehicle control). 2e. Phosphorylation of YAP by Rho-kinase inhibitor Y27632 (20 μM), direct cAMP stimulator Forskolin (10 μM), or DHX (10 μM). IMR-90 cells cultured for 24 hours in media containing 0.1% FBS, treated 2 hours prior to fixation. N=3 (***p<0.001 vs. 0.1% DMSO vehicle control).
FIGS. 6A-6C DHX inhibits YAP/TAZ localization in fibroblasts from multiple tissues. 6a. Mesenchymal cells derived from lung (IMR-90 and IPF-FBs) hepatic stellate cells (HSC), human adult cardiac fibroblasts, (HACF) and human dermal fibroblasts (HDF) were plated densely (Confluent) or sparsely (Control and all remaining conditions) onto plastic cell culture plates for 24 hours in media containing 0.1% FBS, treated for 2 hours with Rho kinase inhibitor Y27632, adenylate cyclase activator forskolin and DHX. N=4, Cells that were positive for nuclear YAP/TAZ were quantified by automated image analysis. 6b. Time course for DHX inhibition of YAP/TAZ nuclear localization. IMR-90 cells, N=3 (***p<0.001 vs. 0.1% DMSO vehicle control). 6c. […] N=3.
ImmunofluorescenceMicroscopy: Cells were plated into 96 well plates (Corning 3603) in their specific growth media and allowed to attach (8 hours). Media was then exchanged for the indicated conditions for each experiment. Cells were fixed in 3.7% formalin (Sigma-Aldrich), permeabilized in 0.25% Triton X-100 (Sigma-Aldrich) and then blocked with 1% BSA for 1 h. Cells or tissue sections were incubated overnight with mouse monoclonal antibody against αSMA (Sigma-Aldrich F3777), and/or a rabbit monoclonal antibody against YAP/TAZ (Cell Signaling D24E4) diluted 1:200 in PBS with 1% BSA. Cells were then washed and exposed to flourescence-conjugated secondary antibodies (Invitrogen) diluted 1:1000 and DAPI (Thermo Fisher Scientific). Images were taken with a Cytation5 (BioTek) microscope. For scoring αSMA positive cells (FIG. 3b), an observer blinded to the treatment conditions counted αSMA-positive cells using a visual threshold for bright fibrous staining; a minimum of 200 cells was counted for each condition. YAP/TAZ localization was quantified (FIG. 2, 6, 8) using Gen5 (Biotek) software. Images were taken at 4× magnification of both DAPI and YAP/TAZ staining. […] Quantification of double positive (YAP/TAZ and αSMA) cells from lung tissue sections (FIG. 4d) was performed similarly; however separate thresholds were established for both YAP/TAZ and αSMA. A minimum of 4000 cells was quantified for each mouse.

Here are results for one molecule from patent publication US20240252463A1, “METHODS OF TREATING FIBROTIC PATHOLOGIES” (Mayo Foundation for Medical Education and Research, priority 2018, published 2024).

Where two headings read alike, the source gives them in different places.

On to `Oc1cc2c(cc1O)[C@H]1c3ccccc3CN[C@@H]1CC2` (racemic) [Dihydrexidine, dihydrexidine], for which the activity at 1 µM was 4.98% in the experiment with αSMA (patient sample IPF-1, read-out: αSMA intensity (% of DMSO control) IPF-1); 0.0469% in the experiment on αSMA (patient sample IPF-2, read-out: αSMA intensity (% of DMSO control) IPF-2); 0.513% in the experiment with αSMA (patient sample IPF-3, read-out: αSMA intensity (% of DMSO control) IPF-3); 12% in the experiment on αSMA (patient sample IPF-4, read-out: αSMA intensity (% of DMSO control) IPF-4). Moreover, the “potency of inhibition of YAP/TAZ nuclear localization, normal lung fibroblasts vs IPF-derived” value in the experiment on YAP/TAZ (FIG. 6c) is reported as “equally potent”. Moreover, in the experiment on YAP/TAZ (cardiac and dermal fibroblasts and hepatic stellate cells (FIG. 6)), the “YAP/TAZ nuclear localization across a panel of mesenchymal cell types” value is recorded as “effective at inhibiting YAP/TAZ nuclear localization”. Further, the “YAP/TAZ nuclear localization induced by endothelin-1, lysophosphatidic acid and serotonin” value with YAP/TAZ (confluent IMR-90, DHX 10 μM, 2 hours (FIG. 2c)) is recorded as “blocked nuclear localization of YAP/TAZ”. Further, in the experiment with YAP/TAZ (fibroblasts on stiff matrix (plastic), IMR-90 cells treated 2 hours (FIG. 2a)), the YAP/TAZ nuclear localization result is “reduced nuclear localization of YAP/TAZ”.
